From US20230114728A1 (Venatorx Pharmaceuticals, Inc., priority 2019, published 2023)
Values after ≈ are worked out from the molar mass of the structure shown.

Columns and labels:
Test in all cases: Broth microdilution MIC in iron-depleted CAMHB (IDM)
Type in all cases: cell-based
A. baumannii ATCC 19606 = conditions: Acinetobacter baumannii, ATCC19606, read-out: Minimum Inhibitory Concentration, ATCC 19606
Summary of the method: (§1)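 IDM = CAMHB stripped with Chelex 100 resin 2 h, supplemented CaCl2 82.5 mg/L, MgCl2 94.1 mg/L, ZnSO4 10 μM, pH 7.3. 2-fold compound dilutions; 2-8×10^5 CFU/mL; 37° C; Acinetobacter 20-24 h, Pseudomonas 16-20 h. Visual MIC.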

[1] = system: A. baumannii CDC-0036 OXA-65, and OXA-24; conditions: Acinetobacter baumannii, read-out: Minimum Inhibitory Concentration, CDC-0036
Summary of the method: as §1

[2] = system: P. aeruginosa CDC-0095 producing OXA-50, and PAO; conditions: Pseudomonas aeruginosa, read-out: Minimum Inhibitory Concentration, P. aeruginosa CDC-0095
Summary of the method: as §1

[3] = system: P. aeruginosa (ΔmexAB-oprM); conditions: Pseudomonas aeruginosa, read-out: Minimum Inhibitory Concentration, P. aeruginosa ΔmexAB-OprM
Summary of the method: as §1

[4] = system: P. aeruginosa CDC-0090 producing KPC-5, OXA-50, and PAO; conditions: Pseudomonas aeruginosa, read-out: Minimum Inhibitory Concentration, P. aeruginosa CDC-0090
Summary of the method: as §1

A. baumannii ATCC 17978 = conditions: Acinetobacter baumannii, ATCC17978, read-out: Minimum Inhibitory Concentration, ATCC 17978
Summary of the method: as §1

[5] = system: A. baumannii CDC-0033 producing NDM-1, and OXA-94; conditions: Acinetobacter baumannii, read-out: Minimum Inhibitory Concentration, CDC-0033
Summary of the method: as §1

P. aeruginosa ATCC 35151 = conditions: Pseudomonas aeruginosa, ATCC35151; iron-depleted MHB (IDM); hyper-permeable strain; read-out: Minimum Inhibitory Concentration, P. aeruginosa ATCC 35151
Summary of the method: as §1

P. aeruginosa ATCC 27853 = conditions: Pseudomonas aeruginosa, ATCC27853, read-out: Minimum Inhibitory Concentration, P. aeruginosa ATCC 27853
Summary of the method: as §1

[6] = system: P. aeruginosa CDC-0054 producing VIM-4, OXA-50, and PAO; conditions: Pseudomonas aeruginosa, read-out: Minimum Inhibitory Concentration, P. aeruginosa CDC-0054
Summary of the method: as §1

[7] = system: A. baumannii CDC-0083 producing NDM-1, PER-7, OXA-23, and OXA-69; conditions: Acinetobacter baumannii, read-out: Minimum Inhibitory Concentration, CDC-0083
Summary of the method: as §1

P. aeruginosa CDC-0110 = conditions: Pseudomonas aeruginosa, CDC0110, read-out: Minimum Inhibitory Concentration, P. aeruginosa CDC-0110
Summary of the method: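 CLSI broth microdilution in iron-depleted cation-adjusted Mueller Hinton broth (Chelex-treated, Ca, Mg, Zn restored, pH 7.3), inoculum 2-8×10^5 CFU/mL, 2-fold compound dilutions. Pseudomonas plates incubated 16-20 h at 37 °C; MIC read visually as lowest concentration without growth.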

Compound	MIC (A. baumannii ATCC 19606)	MIC [1]	MIC [2]	MIC [3]	MIC [4]	MIC (A. baumannii ATCC 17978)	MIC [5]	MIC (P. aeruginosa ATCC 35151)	MIC (P. aeruginosa ATCC 27853)	MIC [6]	MIC [7]	MIC (P. aeruginosa CDC-0110)
NC1(CN2CCN(C(=O)N[C@@H](C(=O)N[C@H]3Cc4ccc(F)c(C(=O)O)c4OB3O)c3cc(F)c(O)c(O)c3Cl)C(=O)C2=O)CC1 (single isomer, unassigned) [Example 133]	0.25 µg/mL (≈ 0.384 µM)	2 to 4 µg/mL (≈ 3.07 to 6.14 µM)	2 to 4 µg/mL (≈ 3.07 to 6.14 µM)	0.25 µg/mL (≈ 0.384 µM)	0.5 to 1 µg/mL (≈ 0.767 to 1.53 µM)	0.25 µg/mL (≈ 0.384 µM)	8 to 16 µg/mL (≈ 12.3 to 24.5 µM)	0.25 µg/mL (≈ 0.384 µM)	0.5 to 1 µg/mL (≈ 0.767 to 1.53 µM)	0.5 to 1 µg/mL (≈ 0.767 to 1.53 µM)	> 128 µg/mL	0.5 to 1 µg/mL (≈ 0.767 to 1.53 µM)
NCCN1CCN(C(=O)N[C@@H](C(=O)N[C@H]2Cc3ccc(F)c(C(=O)O)c3OB2O)c2cc(F)c(O)c(O)c2Cl)C(=O)C1=O (single isomer, unassigned) [Example 179]	0.5 to 1 µg/mL (≈ 0.799 to 1.6 µM)	2 to 4 µg/mL (≈ 3.2 to 6.39 µM)	2 to 4 µg/mL (≈ 3.2 to 6.39 µM)	0.25 µg/mL (≈ 0.4 µM)	2 to 4 µg/mL (≈ 3.2 to 6.39 µM)	0.5 to 1 µg/mL (≈ 0.799 to 1.6 µM)	8 to 16 µg/mL (≈ 12.8 to 25.6 µM)	0.25 µg/mL (≈ 0.4 µM)	0.5 to 1 µg/mL (≈ 0.799 to 1.6 µM)	0.5 to 1 µg/mL (≈ 0.799 to 1.6 µM)	> 128 µg/mL	0.5 to 1 µg/mL (≈ 0.799 to 1.6 µM)
NS(=O)(=O)c1cc(O)cc(C(NC(=O)N2CCN(Cc3c(F)cc(O)c(O)c3Cl)C(=O)C2=O)C(=O)N[C@H]2Cc3cccc(C(=O)O)c3OB2O)c1 (stereo partly drawn) [Example 132, (3R)-3-(2-(4-(2-chloro-6-fluoro-3,4-dihydroxybenzyl)-2,3-dioxopiperazine-1-carboxamido)-2-(3-hydroxy-5-sulfamoylphenyl)acetamido)-2-hydroxy-3,4-dihydro-2H-benzo[e][1,2]oxaborinine-8-carboxylic acid]	8 to 16 µg/mL (≈ 10.7 to 21.3 µM)	> 128 µg/mL	> 128 µg/mL	0.25 µg/mL (≈ 0.333 µM)	2 to 4 µg/mL (≈ 2.67 to 5.33 µM)	> 128 µg/mL	> 128 µg/mL	0.5 to 1 µg/mL (≈ 0.667 to 1.33 µM)	8 to 16 µg/mL (≈ 10.7 to 21.3 µM)	> 128 µg/mL	> 128 µg/mL	2 to 4 µg/mL (≈ 2.67 to 5.33 µM)
NS(=O)(=O)Nc1cccc(C(NC(=O)N2CCN(Cc3c(F)cc(O)c(O)c3Cl)C(=O)C2=O)C(=O)N[C@H]2Cc3cccc(C(=O)O)c3OB2O)c1 (stereo partly drawn) [Example 131, (3R)-3-(2-(4-(2-chloro-6-fluoro-3,4-dihydroxybenzyl)-2,3-dioxopiperazine-1-carboxamido)-2-(3-(sulfamoylamino)phenyl)acetamido)-2-hydroxy-3,4-dihydro-2H-benzo[e][1,2]oxaborinine-8-carboxylic acid]	> 128 µg/mL	> 128 µg/mL	8 to 16 µg/mL (≈ 10.7 to 21.4 µM)	0.25 µg/mL (≈ 0.334 µM)	2 to 4 µg/mL (≈ 2.67 to 5.34 µM)	0.5 to 1 µg/mL (≈ 0.668 to 1.34 µM)	> 128 µg/mL	0.25 µg/mL (≈ 0.334 µM)	8 to 16 µg/mL (≈ 10.7 to 21.4 µM)	> 128 µg/mL	> 128 µg/mL	2 to 4 µg/mL (≈ 2.67 to 5.34 µM)
C[C@@H](O)[C@@H](NC(=O)N1CCN(CCNC(=O)c2c(F)cc(O)c(O)c2Cl)C(=O)C1=O)C(=O)N[C@H]1Cc2ccc(F)c(C(=O)O)c2OB1O [Example 102, (R)-3-((2R,3R)-2-(4-(2-(2-chloro-6-fluoro-3,4-dihydroxybenzamido)ethyl)-2,3-dioxopiperazine-1-carboxamido)-3-hydroxybutanamido)-7-fluoro-2-hydroxy-3,4-dihydro-2H-benzo[e][1,2]oxaborinine-8-carboxylic acid]	2 to 4 µg/mL (≈ 2.87 to 5.73 µM)	32 to 64 µg/mL (≈ 45.9 to 91.7 µM)	2 to 4 µg/mL (≈ 2.87 to 5.73 µM)	0.5 to 1 µg/mL (≈ 0.717 to 1.43 µM)	2 to 4 µg/mL (≈ 2.87 to 5.73 µM)	2 to 4 µg/mL (≈ 2.87 to 5.73 µM)	32 to 64 µg/mL (≈ 45.9 to 91.7 µM)	0.5 to 1 µg/mL (≈ 0.717 to 1.43 µM)	2 to 4 µg/mL (≈ 2.87 to 5.73 µM)	32 to 64 µg/mL (≈ 45.9 to 91.7 µM)	32 to 64 µg/mL (≈ 45.9 to 91.7 µM)	0.5 to 1 µg/mL (≈ 0.717 to 1.43 µM)
CCN1CCN(C(=O)N[C@H](C(=O)N[C@H]2Cc3ccc(F)c(C(=O)O)c3OB2O)c2c(F)cc(O)c(O)c2Cl)C(=O)C1=O (single isomer, unassigned) [Example 125]	> 128 µg/mL	> 128 µg/mL	> 128 µg/mL	> 128 µg/mL	> 128 µg/mL	> 128 µg/mL	> 128 µg/mL	> 128 µg/mL	> 128 µg/mL	> 128 µg/mL	> 128 µg/mL	> 128 µg/mL
NC1(CN2CCN(C(=O)N[C@@H](C(=O)N[C@H]3Cc4ccc(F)c(C(=O)O)c4OB3O)c3c(F)cc(O)c(O)c3Cl)C(=O)C2=O)CC1 (single isomer, unassigned) [Example 134]	0.5 to 1 µg/mL (≈ 0.767 to 1.53 µM)	8 to 16 µg/mL (≈ 12.3 to 24.5 µM)	32 to 64 µg/mL (≈ 49.1 to 98.2 µM)	0.25 µg/mL (≈ 0.384 µM)	2 to 4 µg/mL (≈ 3.07 to 6.14 µM)	0.5 to 1 µg/mL (≈ 0.767 to 1.53 µM)	32 to 64 µg/mL (≈ 49.1 to 98.2 µM)	0.25 µg/mL (≈ 0.384 µM)	2 to 4 µg/mL (≈ 3.07 to 6.14 µM)	32 to 64 µg/mL (≈ 49.1 to 98.2 µM)	> 128 µg/mL	2 to 4 µg/mL (≈ 3.07 to 6.14 µM)
NCCCN1CCN(C(=O)N[C@@H](C(=O)N[C@H]2Cc3ccc(F)c(C(=O)O)c3OB2O)c2cc(F)c(O)c(O)c2Cl)C(=O)C1=O (single isomer, unassigned) [Example 180]	0.5 to 1 µg/mL (≈ 0.782 to 1.56 µM)	8 to 16 µg/mL (≈ 12.5 to 25 µM)	2 to 4 µg/mL (≈ 3.13 to 6.25 µM)	0.25 µg/mL (≈ 0.391 µM)	2 to 4 µg/mL (≈ 3.13 to 6.25 µM)	0.5 to 1 µg/mL (≈ 0.782 to 1.56 µM)	8 to 16 µg/mL (≈ 12.5 to 25 µM)	0.25 µg/mL (≈ 0.391 µM)	0.5 to 1 µg/mL (≈ 0.782 to 1.56 µM)	0.5 to 1 µg/mL (≈ 0.782 to 1.56 µM)	> 128 µg/mL	0.25 µg/mL (≈ 0.391 µM)
